Results as given in patent publication US20080039438A1, “1B-Methylcarbapenem Derivative and Process for the Preparation Thereof” (Korea Institute of Science and Technology, priority 2004, published 2008).
Converted amounts (≈) assume the structure as drawn. Like-named read-outs stand apart in the source and are kept apart here.

Columns and labels:
Proteus mirabilis = test: MIC against clinically isolated aerobic Gram-negative strains; assay type: cell-based; conditions: 15 strains
[1] = tested on: Staphylococcus aureus 503; test: MIC against standard strains (agar dilution); assay type: cell-based; conditions: standard strain Staphylococcus aureus 503, 37° C., 18 to 20 hours, read-out: Minimum Inhibitory Concentration (MIC)
Bacteroides fragilis = test: MIC against clinically isolated anaerobic Gram-negative strains; assay type: cell-based; conditions: 34 strains
Pseudomonas aeruginosa = test: MIC against clinically isolated aerobic Gram-negative strains; assay type: cell-based; conditions: 60 strains
Salmonella typhimurium = test: MIC against standard strains (agar dilution); assay type: cell-based; conditions: Salmonella enterica, standard strain Salmonella typhimurium, 37° C., 18 to 20 hours, read-out: Minimum Inhibitory Concentration (MIC)
[2] = tested on: Streptococcus pyogenes 308A; test: MIC against standard strains (agar dilution); assay type: cell-based; conditions: standard strain Streptococcus pyogenes 308A, 37° C., 18 to 20 hours, read-out: Minimum Inhibitory Concentration (MIC)
Citrobacter freundii = test: MIC against clinically isolated aerobic Gram-negative strains; assay type: cell-based; conditions: 14 strains
Enterococcus faecium = test: MIC against clinically isolated aerobic Gram-positive strains; assay type: cell-based
Clostridium perfringens = test: microbe, parasite or virus in culture; assay type: cell-based; conditions: for MIC50 / MIC90: Clostridium perfringens; for MIC Range: clinically isolated anaerobic Clostridium perfringens, 13 strains
[3] = tested on: Klebsiella aerogenes 1522E; test: MIC against standard strains (agar dilution); assay type: cell-based; conditions: standard strain Klebsiella aerogenes 1522E, 37° C., 18 to 20 hours, read-out: Minimum Inhibitory Concentration (MIC)
Escherichia coli DC 2 = test: MIC against standard strains (agar dilution); assay type: cell-based; conditions: Escherichia coli, DC2, read-out: Minimum Inhibitory Concentration (MIC)
Providentia sp. = test: MIC against clinically isolated aerobic Gram-negative strains; assay type: cell-based; conditions: 13 strains
[4] = tested on: Pseudomonas aeruginosa 9027; test: MIC against standard strains (agar dilution); assay type: cell-based; conditions: standard strain Pseudomonas aeruginosa 9027, 37° C., 18 to 20 hours, read-out: Minimum Inhibitory Concentration (MIC)
[5] = tested on: Enterobacter cloacae 1321E; test: MIC against standard strains (agar dilution); assay type: cell-based; conditions: standard strain Enterobacter cloacae 1321E, 37° C., 18 to 20 hours, read-out: Minimum Inhibitory Concentration (MIC)
[6] = tested on: Streptococcus pyogenes 77A; test: MIC against standard strains (agar dilution); assay type: cell-based; conditions: standard strain Streptococcus pyogenes 77A, 37° C., 18 to 20 hours, read-out: Minimum Inhibitory Concentration (MIC)
Enterobacter aerogenes = test: MIC against clinically isolated aerobic Gram-negative strains; assay type: cell-based; conditions: 14 strains; for MIC50 / MIC90: Klebsiella aerogenes
Escherichia coli 1507E = test: MIC against standard strains (agar dilution); assay type: cell-based; conditions: standard strain Escherichia coli 1507E, 37° C., 18 to 20 hours, read-out: Minimum Inhibitory Concentration (MIC)
Klebsiella pneumoniae = test: MIC against clinically isolated aerobic Gram-negative strains; assay type: cell-based; conditions: 30 strains
[7] = tested on: Streptococcus faecium MD 8b; test: MIC against standard strains (agar dilution); assay type: cell-based; conditions: Enterococcus faecium, MD8B, standard strain Streptococcus faecium MD 8b, 37° C., 18 to 20 hours, read-out: Minimum Inhibitory Concentration (MIC)
Streptococcus pyogenes = test: MIC against clinically isolated aerobic Gram-positive strains; assay type: cell-based; conditions: 15 strains
[8] = Pharmacokinetics test in rats; assay type: in vivo, Sprague-Dawley rats; conditions: rat, intravenous, 20 mg/kg
Procedure: (§1) The pharmacokinetic behavior of the sodium 3-carboxylate compound of Example was determined as follows. Male Sprague-Dawley rats (weighing 250 g, 14-15 weeks old, 5 rats/group) and Beagle dogs (weighing 10 kg, 3 dogs/group) were maintained by feeding conventional hard food at identical conditions for more than 7 days. The test animals were fasted except water for more than 24 hours before tested. […] 500 μl of each blood sample was centrifuged at 12,000 rpm for 30 seconds, the supernatant was filtered through a 0.22 μm filter, and analyzed by HPLC/UV, and the result was listed in Table 7.

[9] = Pharmacokinetics test in dogs; assay type: in vivo, Beagle dogs; conditions: dog, intravenous, 5 mg/kg
Procedure: as §1

What does the source list for `C[C@@H](O)[C@H]1C(=O)N2C(C(=O)O)=C(SCCN=CN)C[C@H]12` [IPM, Imipenem]?
MIC50 (Proteus mirabilis): 2 µg/mL (≈ 6.68 µM); MIC90 (Proteus mirabilis): 2 µg/mL (≈ 6.68 µM); MIC Range (Proteus mirabilis): 0.25 to 4 µg/mL; MIC [1]: 0.007 µg/mL (≈ 0.0234 µM); MIC50 (Bacteroides fragilis): 0.25 µg/mL (≈ 0.835 µM); MIC90 (Bacteroides fragilis): 0.5 µg/mL (≈ 1.67 µM); MIC Range (Bacteroides fragilis): 0.06 to 2 µg/mL; MIC50 (Pseudomonas aeruginosa): 2 µg/mL (≈ 6.68 µM); MIC90 (Pseudomonas aeruginosa): 16 µg/mL (≈ 53.4 µM); MIC Range (Pseudomonas aeruginosa): 0.5 to 128 µg/mL; MIC (Salmonella typhimurium): 0.781 µg/mL (≈ 2.61 µM); MIC [2]: 0.004 µg/mL (≈ 0.0134 µM); MIC50 (Citrobacter freundii): 0.12 µg/mL (≈ 0.401 µM); MIC90 (Citrobacter freundii): 0.5 µg/mL (≈ 1.67 µM); MIC Range (Citrobacter freundii): 0.06 to 0.5 µg/mL; MIC Range (Enterococcus faecium; clinically isolated Enterococcus faecium, 29 strains): 2 to 128 µg/mL; MIC50 (Enterococcus faecium; clinically isolated Enterococcus faecium, 29 strains, read-out: MIC50): 128 µg/mL (≈ 428 µM); MIC90 (Enterococcus faecium; clinically isolated Enterococcus faecium, 29 strains, read-out: MIC90): 128 µg/mL (≈ 428 µM); MIC50 (Clostridium perfringens): 0.06 µg/mL (≈ 0.2 µM); MIC90 (Clostridium perfringens): 0.12 µg/mL (≈ 0.401 µM); MIC Range (Clostridium perfringens): 0.06 to 0.12 µg/mL; MIC [3]: 0.195 µg/mL (≈ 0.651 µM); MIC (Escherichia coli DC 2): 0.195 µg/mL (≈ 0.651 µM); MIC50 (Providentia sp.): 2 µg/mL (≈ 6.68 µM); MIC90 (Providentia sp.): 2 µg/mL (≈ 6.68 µM); MIC Range (Providentia sp.): 0.25 to 4 µg/mL; MIC [4]: 0.391 µg/mL (≈ 1.31 µM); MIC [5]: 0.098 µg/mL (≈ 0.327 µM); MIC [6]: < 0.002 µg/mL; MIC Range (Enterobacter aerogenes): 0.12 to 0.5 µg/mL; MIC50 (Enterobacter aerogenes): 0.12 µg/mL (≈ 0.401 µM); MIC90 (Enterobacter aerogenes): 0.5 µg/mL (≈ 1.67 µM); MIC (Escherichia coli 1507E): 0.098 µg/mL (≈ 0.327 µM); MIC50 (Klebsiella pneumoniae): 0.12 µg/mL (≈ 0.401 µM); MIC90 (Klebsiella pneumoniae): 0.5 µg/mL (≈ 1.67 µM); MIC Range (Klebsiella pneumoniae): 0.06 to 1 µg/mL; MIC [7]: 0.781 µg/mL (≈ 2.61 µM); MIC50 (Streptococcus pyogenes): < 0.008 µg/mL; MIC90 (Streptococcus pyogenes): < 0.008 µg/mL; MIC Range (Streptococcus pyogenes): <0.008 µg/mL

For `C[C@@H](O)[C@H]1C(=O)N2C(C(=O)O)=C(S[C@@H]3CN[C@H](C(=O)N(C)C)C3)[C@H](C)[C@H]12` [MPM, meropenem], which MIC50 (Proteus mirabilis) is on record?
The MIC50 was 0.06 µg/mL (≈ 0.156 µM).

And the MIC90 (Proteus mirabilis)?
Its MIC90 is 0.06 µg/mL (≈ 0.156 µM).

What about the “MIC Range” value (Proteus mirabilis) of the same molecule?
Its value is 0.015 to 0.06 µg/mL.

And the MIC [1]?
The MIC was 0.098 µg/mL (≈ 0.256 µM).

And the MIC50 (Bacteroides fragilis)?
The MIC50 was 0.12 µg/mL (≈ 0.313 µM).

And the MIC90 (Bacteroides fragilis)?
Its MIC90 is 0.25 µg/mL (≈ 0.652 µM).

And the “MIC Range” value (Bacteroides fragilis)?
Its value is 0.12 to 4 µg/mL.

What about the MIC50 (Pseudomonas aeruginosa) of the same molecule?
Its MIC50 is 2 µg/mL (≈ 5.22 µM).

What about the MIC90 (Pseudomonas aeruginosa) of the same molecule?
The MIC90 was 16 µg/mL (≈ 41.7 µM).

And the MIC (Salmonella typhimurium)?
The MIC was 0.049 µg/mL (≈ 0.128 µM).

What about the MIC [2] of the same molecule?
The MIC was 0.007 µg/mL (≈ 0.0183 µM).

What about the AUC [8] of the same molecule?
The AUC was 383 ± 36 µg·min/mL.

And the CL [8]?
Its CL is 54.2 ± 5.3 mL/min/kg.

And the T1/2 [8]?
The T1/2 was 4.0 ± 0.2 min.

What about the MIC50 (Citrobacter freundii) of the same molecule?
The MIC50 was 0.015 µg/mL (≈ 0.0391 µM).

And the MIC90 (Citrobacter freundii)?
The MIC90 was 0.03 µg/mL (≈ 0.0782 µM).

And the “MIC Range” value (Citrobacter freundii)?
Its value is 0.015 to 0.06 µg/mL.

What about the MIC50 (Enterococcus faecium; Enterococcus faecium) of the same molecule?
The MIC50 was 128 µg/mL (≈ 334 µM).

And the MIC90 (Enterococcus faecium; Enterococcus faecium)?
Its MIC90 is 128 µg/mL (≈ 334 µM).

And the MIC50 (Clostridium perfringens)?
The MIC50 was under 0.06 µg/mL.

What about the MIC90 (Clostridium perfringens) of the same molecule?
Its MIC90 is under 0.06 µg/mL.

And the “MIC Range” value (Clostridium perfringens)?
Its value is under 0.06 µg/mL.

What about the MIC [3] of the same molecule?
Its MIC is 0.049 µg/mL (≈ 0.128 µM).

What about the MIC (Escherichia coli DC 2) of the same molecule?
The MIC was 0.025 µg/mL (≈ 0.0652 µM).

And the MIC50 (Providentia sp.)?
Its MIC50 is 0.06 µg/mL (≈ 0.156 µM).

What about the MIC90 (Providentia sp.) of the same molecule?
Its MIC90 is 2 µg/mL (≈ 5.22 µM).

And the “MIC Range” value (Providentia sp.)?
The value was 0.015 to 2 µg/mL.

What about the MIC [4] of the same molecule?
Its MIC is 0.195 µg/mL (≈ 0.509 µM).

And the AUC ([9]; Beagle, supernatant of centrifuged blood)?
The AUC was 11600 ng·h/mL.

What about the T1/2 [9] of the same molecule?
Its T1/2 is 33 min.

What about the MIC [5] of the same molecule?
The MIC was 0.025 µg/mL (≈ 0.0652 µM).

What about the MIC [6] of the same molecule?
The MIC was 0.007 µg/mL (≈ 0.0183 µM).

What about the “MIC Range” value (Enterobacter aerogenes) of the same molecule?
The value was 0.015 to 0.06 µg/mL.

And the MIC50 (Enterobacter aerogenes)?
Its MIC50 is 0.03 µg/mL (≈ 0.0782 µM).

What about the MIC90 (Enterobacter aerogenes) of the same molecule?
The MIC90 was 0.06 µg/mL (≈ 0.156 µM).

What about the MIC (Escherichia coli 1507E) of the same molecule?
The MIC was 0.025 µg/mL (≈ 0.0652 µM).

And the MIC50 (Klebsiella pneumoniae)?
Its MIC50 is 0.03 µg/mL (≈ 0.0782 µM).

What about the MIC90 (Klebsiella pneumoniae) of the same molecule?
The MIC90 was 0.06 µg/mL (≈ 0.156 µM).

What about the “MIC Range” value (Klebsiella pneumoniae) of the same molecule?
Its value is 0.015 to 0.06 µg/mL.

And the MIC [7]?
The MIC was 12.5 µg/mL (≈ 32.6 µM).

What about the MIC50 (Streptococcus pyogenes) of the same molecule?
Its MIC50 is under 0.008 µg/mL.

And the MIC90 (Streptococcus pyogenes)?
The MIC90 was under 0.008 µg/mL.

What about the “MIC Range” value (Streptococcus pyogenes) of the same molecule?
Its value is under 0.008 µg/mL.
